Source: patent publication US20030228607A1, “Screening method and modulators having an improved therapeutic profile” (priority 2002, published 2003)

Target: T1, LXRα and LXRβ (Homo sapiens, UniProt P55055+Q13133)
T1 construct: made in house
T1 sequence (Q13133 188-447 limits assumed): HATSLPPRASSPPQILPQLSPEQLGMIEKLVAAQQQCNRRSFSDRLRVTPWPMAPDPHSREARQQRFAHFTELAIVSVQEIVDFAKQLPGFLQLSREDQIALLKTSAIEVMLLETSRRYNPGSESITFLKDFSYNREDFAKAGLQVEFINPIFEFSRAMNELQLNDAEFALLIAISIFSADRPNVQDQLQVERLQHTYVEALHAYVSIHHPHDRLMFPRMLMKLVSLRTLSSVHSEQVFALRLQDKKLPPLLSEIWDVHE
T1 sequence (P55055 197-460 limits assumed): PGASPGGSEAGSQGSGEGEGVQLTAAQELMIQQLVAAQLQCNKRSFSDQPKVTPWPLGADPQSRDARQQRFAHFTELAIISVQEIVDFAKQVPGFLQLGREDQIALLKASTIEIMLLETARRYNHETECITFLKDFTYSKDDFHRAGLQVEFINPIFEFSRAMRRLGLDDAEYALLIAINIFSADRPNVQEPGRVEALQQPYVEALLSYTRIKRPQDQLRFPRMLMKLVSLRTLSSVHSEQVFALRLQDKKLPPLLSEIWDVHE
T1 sequence (Q15788 676-700 partner limits assumed): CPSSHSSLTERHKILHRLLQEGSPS
Experiment: High throughput FRET co-activator (SRC-1) recruitment assay, multiplexed
Assay type: biochemical
Conditions: 10 uM, positive control; negative control DMSO around 0
Description: FIG. 9. is a scatter plot of a co-activator recruitment assay showing fluorescence emitted from APC at 665 nm in a FRET based (biochemical) co-factor recruitment assay that detects the binding of the SCR-1 co-activator to […]. In this assay, recruitment of SCR-1 to both LXRα and LXRβ were simultaneously assayed.
High through FRET cofactor interaction assays were performed in 96 or 384 well assay well plates using automated liquid handling and analysis. Screens for LXR were performed using the protocol below. Equivalent screens for FXR were performed using the FXR (SEQ.ID. No. 4) ligand binding domain in place of LXRα and LXRβ LBD and at a concentration of 8 nM per well.
1. Partially purified recombinant protein comprising glutathione-S-transferase fused in frame to the LXR-ligand binding domain (comprising amino acids 188-447 of human LXRα (SEQ. ID. No. 6), or amino acids 198-461 of human LXRβ (SEQ. ID. No. 7)).
2. Biotinylated peptide containing a SRC-1 receptor interaction motif(B-SRC-1) (SEQ. ID. No. 46).
3. […]
d) Plates were read using an LJL Analyst, or similar instrument, using the following conditions: Channel 1: The excitation wavelength was set to 330 nm, emitted light was collected at 615 nm, with 100 flashes per well, an integration time of 1000 μs; a 10 msec interval between flashes, and a delay after flashes of 200 μs. […]

## CC(C)CC[C@@H](O)[C@@H](C)[C@H]1CC[C@H]2[C@@H]3CC=C4C[C@@H](O)CC[C@]4(C)[C@H]3CC[C@]12C [22-R-Hydroxy-Cholesterol]
  fluorescence emitted from APC at 665 nm (SRC-1 recruitment, Spotfire scale): around 100
